From ChEMBL document CHEMBL5321234, “Discovery of Thieno[3,2-d]pyrimidine derivatives as potent and selective inhibitors of ataxia telangiectasia mutated and Rad3 related (ATR) kinase” (Eur J Med Chem, 2023)

How the values were obtained:
[1] = target: Serine/threonine-protein kinase ATR (Homo sapiens, UniProt Q13535); assay: Inhibition of ATR (unknown origin)
LoVo [2] = assay: Antiproliferative activity against human LoVo cells incubated for 72 hrs by CCK-8 assay; format: functional, cell-based
[3] = Half life in ICR mouse at 10 mg/kg, po measured upto 24 hrs by LC-MS/MS analysis; format: ADME, organism-based; conditions: in vivo
[4] = Tmax in ICR mouse at 10 mg/kg, po measured upto 24 hrs by LC-MS/MS analysis; format: ADME, organism-based; conditions: in vivo
[5] = Cmax in ICR mouse at 10 mg/kg, po measured upto 24 hrs by LC-MS/MS analysis; format: ADME, organism-based; design: time < 24 hrs, dose 10 mg/kg, route po; conditions: in vivo
[6] = MRT (0 to t) in ICR mouse at 10 mg/kg, po measured upto 24 hrs by LC-MS/MS analysis; format: ADME, organism-based; conditions: in vivo
[7] = MRT (0 to infinity) in ICR mouse at 10 mg/kg, po measured upto 24 hrs by LC-MS/MS analysis; format: ADME, organism-based; conditions: in vivo
[8] = AUC (0 to t) in ICR mouse at 10 mg/kg, po measured upto 24 hrs by LC-MS/MS analysis; format: ADME, organism-based; design: dose 10 mg/kg, time < 24 hrs, route po; conditions: in vivo
[9] = AUC (0 to infinity) in ICR mouse at 10 mg/kg, po measured upto 24 hrs by LC-MS/MS analysis; format: ADME, organism-based; design: dose 10 mg/kg, time < 24 hrs, route po; conditions: in vivo
[10] = Oral bioavailability in ICR mouse at 10 mg/kg measured upto 24 hrs by LC-MS/MS analysis; format: ADME, organism-based; conditions: in vivo
[11] = Initial plasma concentration in ICR mouse at 1 mg/kg, iv measured upto 24 hrs by LC-MS/MS analysis; format: ADME, organism-based
[12] = Half life in ICR mouse at 1 mg/kg, iv measured upto 24 hrs by LC-MS/MS analysis; format: ADME, organism-based; conditions: in vivo
[13] = Tmax in ICR mouse at 1 mg/kg, iv measured upto 24 hrs by LC-MS/MS analysis; format: ADME, organism-based; conditions: in vivo
[14] = Cmax in ICR mouse at 1 mg/kg, iv measured upto 24 hrs by LC-MS/MS analysis; format: ADME, organism-based; design: time < 24 hrs, dose 1 mg/kg, route iv; conditions: in vivo
[15] = MRT (0 to t) in ICR mouse at 1 mg/kg, iv measured upto 24 hrs by LC-MS/MS analysis; format: ADME, organism-based; conditions: in vivo
[16] = MRT (0 to infinity) in ICR mouse at 1 mg/kg, iv measured upto 24 hrs by LC-MS/MS analysis; format: ADME, organism-based; conditions: in vivo, iv, 1 mg/kg, 24 h
[17] = AUC (0 to t) in ICR mouse at 1 mg/kg, iv measured upto 24 hrs by LC-MS/MS analysis; format: ADME, organism-based; design: dose 1 mg/kg, time < 24 hrs, route iv; conditions: in vivo
[18] = AUC (0 to infinity) in ICR mouse at 1 mg/kg, iv measured upto 24 hrs by LC-MS/MS analysis; format: ADME, organism-based; design: dose 1 mg/kg, time < 24 hrs, route iv; conditions: in vivo
[19] = Clearance in ICR mouse at 1 mg/kg, iv measured upto 24 hrs by LC-MS/MS analysis; format: ADME, organism-based; conditions: in vivo, iv, 1 mg/kg, 24 h
[20] = Volume of distribution at steady state in ICR mouse at 1 mg/kg, iv measured upto 24 hrs by LC-MS/MS analysis; format: ADME, organism-based; conditions: in vivo, iv, 1 mg/kg, 24 h
Cytochrome P450 1A2 = target: T1, Cytochrome P450 1A2 (Homo sapiens, UniProt P05177); assay: Inhibition of CYP1A2 (unknown origin); format: ADME
T1 sequence (P05177 whole entry): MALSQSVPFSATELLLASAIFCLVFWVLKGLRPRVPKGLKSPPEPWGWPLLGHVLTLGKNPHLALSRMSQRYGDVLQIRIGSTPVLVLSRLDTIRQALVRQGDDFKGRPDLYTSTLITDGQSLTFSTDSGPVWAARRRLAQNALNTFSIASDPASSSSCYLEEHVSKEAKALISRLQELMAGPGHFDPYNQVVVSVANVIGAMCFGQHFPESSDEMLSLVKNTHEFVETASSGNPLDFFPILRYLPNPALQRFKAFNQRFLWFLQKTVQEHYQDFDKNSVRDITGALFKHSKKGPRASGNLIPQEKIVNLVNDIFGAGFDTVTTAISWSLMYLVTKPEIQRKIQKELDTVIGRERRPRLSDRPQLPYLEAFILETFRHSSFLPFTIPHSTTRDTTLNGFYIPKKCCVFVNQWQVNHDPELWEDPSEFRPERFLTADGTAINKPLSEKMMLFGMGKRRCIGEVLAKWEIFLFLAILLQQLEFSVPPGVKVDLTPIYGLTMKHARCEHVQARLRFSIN

Cytochrome P450 3A4 = Cytochrome P450 3A4 (Homo sapiens, UniProt P08684); assay: Inhibition of CYP3A4 (unknown origin); format: ADME
[21] = Inhibition of DNA-PK (unknown origin); design: species or system Homo sapiens
[22] = target: Serine/threonine-protein kinase mTOR (Homo sapiens, UniProt P42345); assay: Inhibition of mTOR (unknown origin)
HT-29 [23] = assay: Antiproliferative activity against human HT-29 cells incubated for 72 hrs by CCK-8 assay; format: functional, cell-based; conditions: HT-29, 72 h
HT-29 [24] = assay: Antiproliferative activity against human HT-29 cells in presence of AZD1390 incubated for 72 hrs by CCK-8 assay; format: functional, cell-based; conditions: HT-29, 72 h
[25] = Toxicity in ICR male mouse assessed as mortality at 2000 mg/kg, po measured after 14 days; format: organism-based; conditions: in vivo, 336 h, time 14 day
[26] = Toxicity in po dosed ICR mouse assessed as mortality measured after 14 days; format: organism-based; conditions: in vivo, time 14 day
[27] = Toxicity in ICR mouse assessed as body weight change at 2000 mg/kg, po measured after 14 days; format: organism-based; conditions: in vivo, 336 h, time 14 day
[28] = Acute toxicity in ICR mouse assessed as mortality at 2000 mg/kg, po measured after 14 days; format: organism-based; conditions: in vivo, 336 h, time 14 day
LoVo [29] = assay: Antitumor activity against human LoVo cells xenografted in BALB/c mouse assessed as tumor growth inhibition at 50 mg/kg, po qd administered for 21 consecutive days relative to control; format: functional; conditions: 504 h, time 21 day, read-out: TGI
LoVo [30] = assay: Antitumor activity against human LoVo cells xenografted in BALB/c mouse assessed as tumor growth inhibition at 50 mg/kg, po bid administered for 21 consecutive days relative to control; format: functional; conditions: 504 h, time 21 day, read-out: TGI

Serine/threonine-protein kinase ATR, sequence (Q13535 whole entry): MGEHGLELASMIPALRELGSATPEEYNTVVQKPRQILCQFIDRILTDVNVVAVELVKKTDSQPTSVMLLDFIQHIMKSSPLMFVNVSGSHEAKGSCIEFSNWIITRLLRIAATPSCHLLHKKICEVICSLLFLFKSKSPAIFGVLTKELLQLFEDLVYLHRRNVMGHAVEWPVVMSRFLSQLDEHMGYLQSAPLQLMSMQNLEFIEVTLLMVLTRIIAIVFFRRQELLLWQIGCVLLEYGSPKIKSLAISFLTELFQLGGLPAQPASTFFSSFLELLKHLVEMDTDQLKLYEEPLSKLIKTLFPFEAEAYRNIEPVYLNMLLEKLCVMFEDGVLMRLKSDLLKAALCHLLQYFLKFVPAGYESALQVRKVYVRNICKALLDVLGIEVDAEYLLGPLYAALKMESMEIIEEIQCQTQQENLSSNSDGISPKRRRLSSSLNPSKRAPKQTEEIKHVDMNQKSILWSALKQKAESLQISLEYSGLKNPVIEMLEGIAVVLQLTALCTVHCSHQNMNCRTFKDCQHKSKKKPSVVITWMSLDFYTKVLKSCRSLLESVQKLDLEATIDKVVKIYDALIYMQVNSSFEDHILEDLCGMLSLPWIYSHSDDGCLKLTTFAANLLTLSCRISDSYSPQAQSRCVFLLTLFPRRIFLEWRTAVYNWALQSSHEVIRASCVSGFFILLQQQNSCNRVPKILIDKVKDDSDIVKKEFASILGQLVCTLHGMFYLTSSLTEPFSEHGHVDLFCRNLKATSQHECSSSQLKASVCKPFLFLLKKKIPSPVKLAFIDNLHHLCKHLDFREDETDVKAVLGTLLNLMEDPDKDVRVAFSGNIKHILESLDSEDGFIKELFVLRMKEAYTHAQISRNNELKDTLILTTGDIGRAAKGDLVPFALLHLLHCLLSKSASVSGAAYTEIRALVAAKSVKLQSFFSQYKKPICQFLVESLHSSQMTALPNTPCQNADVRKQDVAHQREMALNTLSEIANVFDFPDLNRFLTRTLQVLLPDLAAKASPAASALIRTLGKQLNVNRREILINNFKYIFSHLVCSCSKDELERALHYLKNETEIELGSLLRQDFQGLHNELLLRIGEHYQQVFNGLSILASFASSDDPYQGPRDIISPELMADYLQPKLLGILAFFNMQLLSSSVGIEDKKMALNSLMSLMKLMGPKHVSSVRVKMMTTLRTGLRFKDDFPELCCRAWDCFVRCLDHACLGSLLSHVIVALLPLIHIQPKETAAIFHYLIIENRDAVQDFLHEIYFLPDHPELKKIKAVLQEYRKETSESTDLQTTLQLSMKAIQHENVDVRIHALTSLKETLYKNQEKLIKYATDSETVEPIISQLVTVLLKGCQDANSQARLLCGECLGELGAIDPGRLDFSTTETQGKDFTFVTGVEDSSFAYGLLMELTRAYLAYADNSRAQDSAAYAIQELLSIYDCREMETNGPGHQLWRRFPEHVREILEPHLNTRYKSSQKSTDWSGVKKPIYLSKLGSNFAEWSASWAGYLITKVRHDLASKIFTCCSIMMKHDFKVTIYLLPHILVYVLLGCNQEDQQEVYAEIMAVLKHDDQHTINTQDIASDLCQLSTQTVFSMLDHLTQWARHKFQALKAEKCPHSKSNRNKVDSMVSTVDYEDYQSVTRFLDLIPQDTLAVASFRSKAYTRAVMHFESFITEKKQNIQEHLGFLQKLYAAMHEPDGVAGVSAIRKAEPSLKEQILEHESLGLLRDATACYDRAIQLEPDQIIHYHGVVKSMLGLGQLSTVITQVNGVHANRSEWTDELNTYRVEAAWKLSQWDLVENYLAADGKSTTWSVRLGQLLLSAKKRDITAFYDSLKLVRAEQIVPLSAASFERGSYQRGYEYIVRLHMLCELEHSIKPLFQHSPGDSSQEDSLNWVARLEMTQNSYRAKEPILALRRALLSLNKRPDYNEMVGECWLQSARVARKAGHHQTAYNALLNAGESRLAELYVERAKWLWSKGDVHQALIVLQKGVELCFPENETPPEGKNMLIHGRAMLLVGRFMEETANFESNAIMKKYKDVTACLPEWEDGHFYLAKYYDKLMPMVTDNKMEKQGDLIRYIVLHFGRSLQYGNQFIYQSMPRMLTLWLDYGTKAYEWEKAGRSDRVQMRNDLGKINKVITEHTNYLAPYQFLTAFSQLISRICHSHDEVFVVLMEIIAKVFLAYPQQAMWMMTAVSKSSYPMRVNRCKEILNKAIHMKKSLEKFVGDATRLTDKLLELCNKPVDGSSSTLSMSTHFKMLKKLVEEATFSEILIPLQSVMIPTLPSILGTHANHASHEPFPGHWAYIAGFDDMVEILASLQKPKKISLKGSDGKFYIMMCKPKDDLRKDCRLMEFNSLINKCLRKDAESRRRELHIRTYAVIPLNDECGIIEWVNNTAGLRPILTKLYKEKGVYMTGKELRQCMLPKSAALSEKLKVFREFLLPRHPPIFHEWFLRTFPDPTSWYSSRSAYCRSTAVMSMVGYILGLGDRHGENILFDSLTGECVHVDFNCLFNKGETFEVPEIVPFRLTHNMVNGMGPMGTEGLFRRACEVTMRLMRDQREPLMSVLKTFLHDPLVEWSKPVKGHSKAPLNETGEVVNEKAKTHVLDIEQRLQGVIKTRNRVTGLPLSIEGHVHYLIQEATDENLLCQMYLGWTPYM
Cytochrome P450 3A4, sequence (P08684 whole entry): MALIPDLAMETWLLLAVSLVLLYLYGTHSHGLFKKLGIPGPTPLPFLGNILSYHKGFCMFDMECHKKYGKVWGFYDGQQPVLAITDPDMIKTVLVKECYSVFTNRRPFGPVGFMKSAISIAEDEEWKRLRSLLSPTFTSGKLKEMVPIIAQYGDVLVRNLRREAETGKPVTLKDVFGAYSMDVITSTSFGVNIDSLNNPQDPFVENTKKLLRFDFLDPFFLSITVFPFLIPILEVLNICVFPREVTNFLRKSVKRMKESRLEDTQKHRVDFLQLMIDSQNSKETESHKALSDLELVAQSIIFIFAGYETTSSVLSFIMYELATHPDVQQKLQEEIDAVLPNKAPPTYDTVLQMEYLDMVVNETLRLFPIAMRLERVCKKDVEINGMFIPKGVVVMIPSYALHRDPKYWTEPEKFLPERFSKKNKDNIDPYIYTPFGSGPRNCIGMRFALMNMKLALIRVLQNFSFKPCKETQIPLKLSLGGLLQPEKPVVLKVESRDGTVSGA

In the case of `CNc1nc2ccccc2n1-c1nc(N2CCOC[C@H]2C)c2scc(S(C)(=O)=O)c2n1`, the IC50 [1] is reported as 1.5 nM, the IC50 (LoVo [2]) is reported as 73 nM and the half-life [3] is reported as 5.06 h. It also gave a Tmax [4] of 0.25 h, a Cmax [5] of 1270 ng/mL and an MRT last at 24 h [6] of 5.3 h. It also gave an MRT inf [7] of 6.2 h, an AUC(0-t) at 24 h [8] of 4300 ng·h/mL and an AUC(0-inf) [9] of 4420 ng·h/mL. The bioavailability [10] was 46%, the C0 at 24 h [11] was 1310 ng/mL and the half-life [12] was 1.56 h. For the same compound, the Tmax [13] was 4.8 min, the Cmax [14] was 1140 ng/mL and the MRT last at 24 h [15] was 0.89 h. The MRT [16] was 0.97 h, the AUC(0-t) at 24 h [17] was 954 ng·h/mL and the AUC(0-inf) [18] was 962 ng·h/mL. For the same compound, the CL [19] was 17.35 mL/min/kg, the Vdss [20] was 2.371 L/kg and the “inhibition (INH)” value (Cytochrome P450 1A2) was “Not Active”. For the same compound, the “inhibition (INH)” value (Cytochrome P450 3A4) was “Not Active”, the IC50 [21] was 25.3 nM and the IC50 [22] was 58.8 nM. The IC50 (HT-29 [23]) was 161 nM, the IC50 (HT-29 [24]) was 3 nM and the Activity [25] was “Toxic”. For the same compound, the LD50 at 336 h [26] was 2000 mg/kg, the Activity [27] was “Non-Toxic” and the Activity [28] was “Toxic”. It also gave an inhibition in vivo at 50 mg/kg (LoVo [29]) of 32% and an inhibition in vivo at 50 mg/kg (LoVo [30]) of 55%.
